Data as given in PubChem BioAssay (NCI).
Values joined by “and” are separate entries in the source; they are usually repeats but may differ in a detail not shown here. Equal entries are not always repeated.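 48-hour exposure; five concentrations; linearly interpolated endpoints. Abbreviation: GI50, concentration required for 50% inhibition of growth. TGI is the concentration that stops growth completely.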

Legend:
Test in all cases: NCI anticancer screen, dose series, 48 h
PC-3 prostate = system: PC-3 prostate
K-562 leukemia = system: K-562 leukemia
NCI-H23 lung = system: NCI-H23 lung
A498 renal = system: A498 renal
HCT-15 colon = system: HCT-15 colon
UACC-257 melanoma = system: UACC-257 melanoma
IGROV1 ovarian = system: IGROV1 ovarian
SW-620 colon = system: SW-620 colon
SF-268 CNS = system: SF-268 CNS
BT-549 breast = system: BT-549 breast

## C#CCn1c(=O)c2ccccc2n(CC#C)c1=O
PC-3 prostate
  TGI: > 10 µM
K-562 leukemia
  TGI: > 10 µM
NCI-H23 lung
  TGI: > 10 µM
A498 renal
  TGI: > 10 µM
HCT-15 colon
  TGI: > 10 µM
UACC-257 melanoma
  TGI: > 10 µM
IGROV1 ovarian
  TGI: > 10 µM
SW-620 colon
  TGI: > 10 µM
SF-268 CNS
  TGI: > 10 µM

## COC(=O)[C@@H](O)[C@](O)(CCC(C)C)C(=O)O[C@@H]1C(OC)=C[C@]23CCCN2CCc2cc4c(cc2[C@H]13)OCO4
K-562 leukemia
  TGI: 23 µM
NCI-H23 lung
  TGI: 5.7 µM
A498 renal
  TGI: 4.45 µM
HCT-15 colon
  TGI: 7.33 µM
UACC-257 melanoma
  TGI: 6.06 µM
IGROV1 ovarian
  TGI: 20 µM
SW-620 colon
  TGI: 9.94 µM
SF-268 CNS
  TGI: 3.37 µM

## CC(=O)N(C(=O)CC(=O)N1N=C(c2ccccc2)C(N=Nc2ccccc2[N+](=O)[O-])C1=O)c1ccc(Cl)cc1 (stereo not given)
PC-3 prostate
  TGI: > 10 µM
K-562 leukemia
  TGI: > 10 µM
NCI-H23 lung
  TGI: > 10 µM
A498 renal
  TGI: > 10 µM
HCT-15 colon
  TGI: > 10 µM
UACC-257 melanoma
  TGI: > 10 µM
BT-549 breast
  TGI: > 10 µM
IGROV1 ovarian
  TGI: > 10 µM
SW-620 colon
  TGI: > 10 µM
SF-268 CNS
  TGI: > 10 µM

## C=CC1(CC/C(=C\[N+](=O)[O-])c2ccc(OC)c(OC)c2)OCC(C)(C)CO1
PC-3 prostate
  TGI: 57 µM
K-562 leukemia
  TGI: > 100 µM
NCI-H23 lung
  TGI: 37 µM
HCT-15 colon
  TGI: 38.6 µM
UACC-257 melanoma
  TGI: 26.8 µM
BT-549 breast
  TGI: 31.1 µM
SW-620 colon
  TGI: > 100 µM
SF-268 CNS
  TGI: 39.1 µM

## CC(C)=CCC[C@@H](C)c1c(O)c(O)c(C)c2nccnc12
PC-3 prostate
  TGI: > 100 µM
K-562 leukemia
  TGI: > 66.6 µM
NCI-H23 lung
  TGI: > 79.1 µM
A498 renal
  TGI: > 86.1 µM
HCT-15 colon
  TGI: > 100 µM
UACC-257 melanoma
  TGI: > 100 µM
BT-549 breast
  TGI: > 100 µM
IGROV1 ovarian
  TGI: > 81.5 µM
SW-620 colon
  TGI: > 100 µM
SF-268 CNS
  TGI: > 100 µM

## Nc1nc2c(c(-c3cccc(Cl)c3)n1)COC/C2=C\c1cccc(Cl)c1
PC-3 prostate
  TGI: > 100 µM
K-562 leukemia
  TGI: > 100 µM
NCI-H23 lung
  TGI: > 100 µM
A498 renal
  TGI: > 100 µM
HCT-15 colon
  TGI: > 100 µM
UACC-257 melanoma
  TGI: > 100 µM
BT-549 breast
  TGI: > 100 µM
IGROV1 ovarian
  TGI: > 100 µM
SW-620 colon
  TGI: > 100 µM
SF-268 CNS
  TGI: > 100 µM

## O=C1CCCCC1CN1CCCCC1 (stereo not given)
PC-3 prostate
  TGI: > 100 µM
K-562 leukemia
  TGI: > 100 µM
NCI-H23 lung
  TGI: > 100 µM
A498 renal
  TGI: > 100 µM
HCT-15 colon
  TGI: > 100 µM
BT-549 breast
  TGI: > 100 µM
IGROV1 ovarian
  TGI: > 100 µM
SW-620 colon
  TGI: > 100 µM
SF-268 CNS
  TGI: > 100 µM

## CCC(=O)NCC1CCCN2CCCCC12 (stereo not given)
PC-3 prostate
  TGI: > 100 µM
K-562 leukemia
  TGI: > 100 µM
NCI-H23 lung
  TGI: > 100 µM
A498 renal
  TGI: > 100 µM
HCT-15 colon
  TGI: > 100 µM
UACC-257 melanoma
  TGI: > 100 µM
BT-549 breast
  TGI: > 100 µM
SW-620 colon
  TGI: > 100 µM
SF-268 CNS
  TGI: > 100 µM

## N[C@@H](CCC(=O)NCP(=O)(O)O)C(=O)O
PC-3 prostate
  TGI: > 100 µM
K-562 leukemia
  TGI: > 100 µM
NCI-H23 lung
  TGI: > 100 µM
A498 renal
  TGI: > 100 µM
HCT-15 colon
  TGI: > 100 µM
UACC-257 melanoma
  TGI: > 100 µM
BT-549 breast
  TGI: > 100 µM
IGROV1 ovarian
  TGI: > 100 µM
SW-620 colon
  TGI: > 100 µM

## Nn1c(-c2ccccc2)n[nH]c1=O
PC-3 prostate
  TGI: > 100 µM
NCI-H23 lung
  TGI: > 100 µM
A498 renal
  TGI: > 100 µM
HCT-15 colon
  TGI: > 100 µM
UACC-257 melanoma
  TGI: > 100 µM
BT-549 breast
  TGI: > 100 µM
IGROV1 ovarian
  TGI: > 100 µM
SW-620 colon
  TGI: > 100 µM
SF-268 CNS
  TGI: > 100 µM

## O=[N+]([O-])c1ccc(Cl)cc1N/N=C/c1ccnc2ccccc12
PC-3 prostate
  TGI: > 100 µM
K-562 leukemia
  TGI: > 100 µM
NCI-H23 lung
  TGI: > 100 µM
HCT-15 colon
  TGI: > 100 µM
UACC-257 melanoma
  TGI: > 100 µM
BT-549 breast
  TGI: > 100 µM
IGROV1 ovarian
  TGI: > 100 µM
SW-620 colon
  TGI: > 100 µM
SF-268 CNS
  TGI: > 100 µM

## COc1cc(S(=O)(=O)Nc2nc(-c3ccc(N4C(=O)C(CC(=O)O)SC4c4cccs4)cc3)cs2)ccc1Cl (stereo not given)
PC-3 prostate
  TGI: > 100 µM
K-562 leukemia
  TGI: > 100 µM
NCI-H23 lung
  TGI: 49 µM
A498 renal
  TGI: > 100 µM
HCT-15 colon
  TGI: 39.8 µM
UACC-257 melanoma
  TGI: > 100 µM
IGROV1 ovarian
  TGI: 66 µM
SW-620 colon
  TGI: 78.8 µM
SF-268 CNS
  TGI: 50.9 µM

## O=C(Cc1ccc(O)c(O)c1)NCc1c[nH]c2ccccc12
PC-3 prostate
  TGI: > 100 µM
K-562 leukemia
  TGI: > 100 µM
NCI-H23 lung
  TGI: > 100 µM
A498 renal
  TGI: > 100 µM
HCT-15 colon
  TGI: > 100 µM
UACC-257 melanoma
  TGI: > 100 µM
BT-549 breast
  TGI: > 100 µM
SW-620 colon
  TGI: > 100 µM
SF-268 CNS
  TGI: > 100 µM

## CC1(C(=O)O)CCC2(C)CCC3(C)C(=CC(=O)C4C5(C)CCC(O)C(C)(C)C5CCC43C)C2C1 (stereo not given)
PC-3 prostate
  TGI: > 100 µM
NCI-H23 lung
  TGI: 44.8 µM
HCT-15 colon
  TGI: 85.4 µM
UACC-257 melanoma
  TGI: > 100 µM
BT-549 breast
  TGI: 42.3 µM
SW-620 colon
  TGI: > 100 µM
SF-268 CNS
  TGI: 67.4 µM

## COc1ccc2[nH]cc(/C=C(/C)c3ccncc3)c2c1
K-562 leukemia
  TGI: > 100 µM
NCI-H23 lung
  GI50: 7.07 µM
A498 renal
  TGI: 42.5 µM
HCT-15 colon
  GI50: 551 nM
  TGI: 18.7 µM and 14 µM
UACC-257 melanoma
  GI50: 8.36 µM
  TGI: 32.8 µM and 26.4 µM
IGROV1 ovarian
  TGI: > 100 µM
SW-620 colon
  TGI: 27.2 µM and > 100 µM
SF-268 CNS
  TGI: > 100 µM

## CC(=O)/C=C/C1=C(C)CCCC1(C)CC(C)C (stereo not given)
PC-3 prostate
  TGI: > 100 µM
K-562 leukemia
  TGI: 40.8 µM
NCI-H23 lung
  TGI: > 100 µM
A498 renal
  TGI: > 100 µM
HCT-15 colon
  TGI: 30.9 µM
UACC-257 melanoma
  TGI: 84 µM
IGROV1 ovarian
  TGI: > 100 µM
SW-620 colon
  TGI: 44.1 µM
SF-268 CNS
  TGI: > 100 µM

## C=C1CCN2CC[C@@H](OC(=O)/C(C)=C\C)[C@@H]12
PC-3 prostate
  TGI: > 100 µM
K-562 leukemia
  TGI: > 100 µM
NCI-H23 lung
  TGI: > 100 µM
A498 renal
  TGI: > 100 µM
HCT-15 colon
  TGI: > 100 µM
UACC-257 melanoma
  TGI: > 100 µM
IGROV1 ovarian
  TGI: > 100 µM
SW-620 colon
  TGI: > 100 µM
SF-268 CNS
  TGI: > 100 µM

## Cc1cc(C)nc(NS(=O)(=O)c2ccc(NC(=O)c3ccc4nc5ccccc5c(Nc5ccc(S(N)(=O)=O)cc5)c4c3)cc2)n1
PC-3 prostate
  TGI: > 100 µM
K-562 leukemia
  TGI: > 100 µM
NCI-H23 lung
  TGI: > 100 µM
HCT-15 colon
  TGI: > 100 µM
UACC-257 melanoma
  TGI: > 100 µM
BT-549 breast
  TGI: > 100 µM
IGROV1 ovarian
  TGI: > 100 µM
SW-620 colon
  TGI: > 100 µM
SF-268 CNS
  TGI: > 100 µM

## O=C(NCc1ccccc1)c1n[nH][nH]c1=O
PC-3 prostate
  TGI: > 100 µM
K-562 leukemia
  TGI: > 100 µM
NCI-H23 lung
  TGI: > 100 µM
HCT-15 colon
  TGI: > 100 µM
UACC-257 melanoma
  TGI: > 100 µM
BT-549 breast
  TGI: > 100 µM
IGROV1 ovarian
  TGI: > 100 µM
SW-620 colon
  TGI: > 100 µM
SF-268 CNS
  TGI: > 100 µM

## O=S(=O)(c1ccccc1)c1cccc2c1NCCC2
PC-3 prostate
  TGI: > 100 µM
K-562 leukemia
  TGI: > 100 µM
A498 renal
  TGI: > 100 µM
HCT-15 colon
  TGI: > 100 µM
UACC-257 melanoma
  TGI: 76.9 µM
BT-549 breast
  TGI: 83 µM
IGROV1 ovarian
  TGI: > 100 µM
SW-620 colon
  TGI: > 100 µM
SF-268 CNS
  TGI: > 100 µM

## Oc1ccc(Cc2cc(Cc3ccc(O)cc3)cc(Cc3ccc(O)cc3)c2)cc1
PC-3 prostate
  TGI: > 50 µM
K-562 leukemia
  TGI: > 50 µM
A498 renal
  TGI: > 50 µM
HCT-15 colon
  TGI: > 50 µM
UACC-257 melanoma
  TGI: > 50 µM
BT-549 breast
  TGI: > 50 µM
IGROV1 ovarian
  TGI: > 50 µM
SW-620 colon
  TGI: > 50 µM
SF-268 CNS
  TGI: > 50 µM

## NS(=O)(=O)c1nnc(NC(=O)Nc2ccc(Cl)c(Cl)c2)s1
K-562 leukemia
  TGI: > 100 µM
NCI-H23 lung
  TGI: 39.4 µM
A498 renal
  TGI: 43.9 µM
HCT-15 colon
  TGI: 50.7 µM
UACC-257 melanoma
  TGI: 42 µM
BT-549 breast
  TGI: 52.2 µM
SW-620 colon
  TGI: > 100 µM
SF-268 CNS
  TGI: 67.5 µM

## O=[N+]([O-])c1ccc2[nH]nc(OCc3ccccc3Cl)c2c1
PC-3 prostate
  TGI: > 100 µM
K-562 leukemia
  TGI: > 100 µM
NCI-H23 lung
  TGI: > 100 µM
A498 renal
  TGI: > 100 µM
HCT-15 colon
  TGI: > 100 µM
UACC-257 melanoma
  TGI: > 100 µM
IGROV1 ovarian
  TGI: > 100 µM
SF-268 CNS
  TGI: > 100 µM
